Source: patent US20230000869A1, “NOVEL ALK2 INHIBITORS AND METHODS FOR INHIBITING BMP SIGNALING” (The Brigham and Women's Hospital, Inc., priority 2017, published 2023)

Columns and labels:
[1] = target: T1, ALK2 (Mus musculus, UniProt P37172); experiment: Luciferase reporter gene assay for ALK2 activity (C2C12 BRE-Luc SMAD1/5/8 reporter, BMP6 agonist); format: cell-based; conditions: BMP6 50 ng/mL
T1 construct: endogenous in cells; host or cells: C2C12-BRE (BRE-Luc reporter line, G418 selection)
T1 sequence (P37172 21-509): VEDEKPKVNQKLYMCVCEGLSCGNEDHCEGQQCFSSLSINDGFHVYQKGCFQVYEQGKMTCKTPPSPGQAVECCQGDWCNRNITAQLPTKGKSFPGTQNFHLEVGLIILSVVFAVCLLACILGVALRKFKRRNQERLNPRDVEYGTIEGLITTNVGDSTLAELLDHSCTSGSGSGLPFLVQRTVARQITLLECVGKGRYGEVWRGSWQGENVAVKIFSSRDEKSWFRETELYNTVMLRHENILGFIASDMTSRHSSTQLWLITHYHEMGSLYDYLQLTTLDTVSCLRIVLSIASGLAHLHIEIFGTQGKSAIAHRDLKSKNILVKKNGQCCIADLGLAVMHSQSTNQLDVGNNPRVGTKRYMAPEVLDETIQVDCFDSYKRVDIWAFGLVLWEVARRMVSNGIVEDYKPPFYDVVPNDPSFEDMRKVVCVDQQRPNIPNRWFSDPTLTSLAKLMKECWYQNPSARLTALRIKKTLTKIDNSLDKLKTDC
Method: (§1) All cell lines were cultured in DMEM, supplemented with […] and 1% Pen/Strep. All media reagents were obtained from Gibco. BMP6, BMP9, and TGFβ were obtained from R&D Systems. C2C12-BRE and HEK293T-SBE were kept in selection with 400 ug/mL G418 from Invivogen.
(§2) In this reporter gene cell based ALK2 and TGFβ assay, the C2C12 cell line was employed for the measurement of ALK2 activity, using a BRE-Luc SMAD1/5/8 reporter and BMP6 as the agonist. The HEK293T cell line was employed to measure TGFβ activity, using a SBE-Luc SMAD2/3 reporter and TGFβ as the agonist. Luciferase reporter assays were read using Promega Steady-Glo Luciferase Assay System.
(§3) Cells were plated in 96 well white clear bottom assay plates at 10 k cells/well for C2C12-BRE, 15 k cells/well for HEK293-SBE in DMEM containing 2% FBS 1% P/S. Cells were given a minimum of 4 hours in incubator at 37° C./5% CO2 to adhere prior to further treatment. Compounds were diluted in DMSO to a 10-point dilution curve and added to the plate to reach the following final concentrations: 10000, 3000, 1000, 300, 100, and 30 nM in the HEK293-SBE assay and 1000, 300, 100, 30, 10, 3, 1, 0.3 nM in the C2C12-BRE assay. Negative and positive control wells received 2 μL DMSO as vehicle treatment. Plates were returned to incubator for 45 minutes and then BMP6 and TGFB were added to a final concentration of 50 ng/mL and 5 ng/mL, respectively. Plates were returned to the incubator and left overnight. After a minimum of 18 hours post BMP6/TGFβ addition, the plates were read using Promega Steady-Glo Luciferase Assay System. A 1:1 mixture of prepared steady-glo and phenol free DMEM was prepared, and 50 μL/well was added to the assay plates whose media had been flicked off. Plates were given 10 minutes post steady-glo addition before luminescence was read on a Spectramax M5e microplate reader. Negative control wells were averaged and subtracted from all other wells on the plate. Inhibition was calculated as the percent of signal loss compared to the averaged positive control wells.

[2] = tested on: TGFβ; experiment: Luciferase reporter gene assay for TGFβ activity (HEK293T SBE-Luc SMAD2/3 reporter, TGFβ agonist); format: cell-based; conditions: Homo sapiens, HEK-293T, TGFβ 5 ng/mL
Method: as §1, §2, §3

Row | IC50 [1] [nM] | IC50 [2] [nM] | Compound
1 | 6 | 240 | CN1CCN(C2CCN(c3cnc4c(-c5cc(C#N)nc6ccccc56)cnn4c3)CC2)CC1 [Compound 237]
2 | 175 | 306 | CN1CCN(C2CCN(c3cnc4c(-c5cc(C(F)F)nc6ccccc56)cnn4c3)CC2)CC1 [Compound 238]
3 | 32 | > 1000 | COc1cc2c(-c3cnn4cc(N5CCC(N6CCN(C)CC6)CC5)cnc34)ccnc2cc1O [Compound 239]
4 | 16 | 291 | CN1CCN(C2CCN(c3cnc4c(-c5ccnc6cc(F)c(Cl)cc56)cnn4c3)CC2)CC1 [Compound 240]
5 | 92 | > 1000 | CN1CCN(C2CCN(c3cnc4c(-c5ccnc6ccc(Cl)cc56)cnn4c3)CC2)CC1 [Compound 241]
6 | 37 | < 10 | CN1CCN(C2CCN(c3cnc4c(-c5ccnc6cc(F)c(O)cc56)cnn4c3)CC2)CC1 [Compound 242]
7 | > 1000 | > 2000 | CN1CCN(C2CCN(c3cnc4c(-c5cccc6[nH]ncc56)cnn4c3)CC2)CC1 [Compound 243]
8 | 30 | 328 | CN1CCN(C2CCN(c3cnc4c(-c5ccnc6cc(Cl)ccc56)cnn4c3)CC2)CC1 [Compound 244]
9 | > 1000 | 468 | Cc1cc(-c2cnn3cc(N4CCC(N5CCN(C)CC5)CC4)cnc23)c2ccc(C(F)(F)F)cc2n1 [Compound 245]
10 | > 1000 | > 1000 | CN1CCN(C2CCN(c3cnc4c(-c5cnn(C)c5)cnn4c3)CC2)CC1 [Compound 246]
11 | 13 | > 3000 | CN1CCN(C2CCN(c3cnc4c(-c5ccnc6[nH]ccc56)cnn4c3)CC2)CC1 [Compound 247]
12 | 57 | 2880 | CN1CCN(C2CCN(c3cnc4c(-c5ccnc6ccsc56)cnn4c3)CC2)CC1 [Compound 248]
13 | > 1000 | > 1000 | CN1CCN(C2CCN(c3cnc4c(-c5ccnc(N)c5)cnn4c3)CC2)CC1 [Compound 249]
14 | 17 | 202 | CN1CCN(C2CCN(c3cnc4c(-c5ccnc6sccc56)cnn4c3)CC2)CC1 [Compound 250]
15 | 26 | 209 | CN1CCN(C2CCN(c3cnc4c(-c5ccnc6ccc(F)cc56)cnn4c3)CC2)CC1 [Compound 251]
16 | 85 | 12 | CN1CCN(C2CCN(c3cnc4c(-c5ccnc6ccc(OC(F)(F)F)cc56)cnn4c3)CC2)CC1 [Compound 252]
17 | 193 | > 1000 | CN1CCN(C2CCN(c3cnc4c(-c5ccnc6c5ccn6C)cnn4c3)CC2)CC1 [Compound 253]
18 | 244 | > 1000 | COc1ccc2c(-c3cnn4cc(N5CCC(N6CCN(C)CC6)CC5)cnc34)ccnc2c1 [Compound 254]
19 | 68 | 28 | Cc1cc(-c2cnn3cc(N4CCC(N5CCN(C)CC5)CC4)cnc23)c2ccc(F)cc2n1 [Compound 255]
20 | 10 | 104 | CN1CCN(C2CCN(c3cnc4c(-c5ccnc6cc(F)ccc56)cnn4c3)CC2)CC1 [Compound 256]
21 | > 1000 | > 1000 | CN1CCN(C2CCN(c3cnc4c(-c5ccnc6cc(C(F)(F)F)ccc56)cnn4c3)CC2)CC1 [Compound 257]
22 | 197 | 964 | CNC(=O)c1cc(-c2cnn3cc(N4CCC(N5CCN(C)CC5)CC4)cnc23)ccn1 [Compound 258]
23 | 12 | 229 | CN1CCN(C2CCN(c3cnc4c(-c5ccnc6c(F)cccc56)cnn4c3)CC2)CC1 [Compound 260]
24 | 19 | 916 | CN1CCN(C2CCN(c3cnc4c(-c5ccnc6ncccc56)cnn4c3)CC2)CC1 [Compound 261]
25 | > 1000 | > 3000 | CN1CCN(C2CCN(c3cnc4c(-c5ccnc6cc(OC(F)(F)F)ccc56)cnn4c3)CC2)CC1 [Compound 262]
26 | 295 | 424 | CN1CCN(C2CCN(c3cnc4c(-c5ccnc6cc(C#N)ccc56)cnn4c3)CC2)CC1 [Compound 263]

Row | IC50 [1] [nM] | IC50 [2] [nM] | Compound
27 | 18 | 383 | CN1CCN(C2CCN(c3cnc4c(-c5ccnc6cc(F)c(N)cc56)cnn4c3)CC2)CC1 [Compound 264]
28 | 17 | 138 | Cc1cc2c(-c3cnn4cc(N5CCC(N6CCN(C)CC6)CC5)cnc34)ccnc2cc1F [Compound 266]
29 | 162 | > 2000 | CN1CCN(C2CCN(c3cnc4c(-c5ccnc6ccc(Cl)c(F)c56)cnn4c3)CC2)CC1 [Compound 267]
30 | 98 | > 1000 | Cc1cc(-c2cnn3cc(N4CCC(N5CCN(C)CC5)CC4)cnc23)c2cccc(C(F)(F)F)c2n1 [Compound 268]
31 | 311 | > 3000 | CN1CCN(C2CCN(c3cnc4c(-c5ccnc6cn[nH]c56)cnn4c3)CC2)CC1 [Compound 269]
32 | 558 | > 3000 | Cc1cccc2c(-c3cnn4cc(N5CCC(N6CCN(C)CC6)CC5)cnc34)ccnc12 [Compound 270]
33 | > 3000 | > 3000 | COc1ccc2ncc(F)c(-c3cnn4cc(N5CCC(N6CCN(C)CC6)CC5)cnc34)c2c1 [Compound 271]
34 | 153 | > 1000 | COc1cc(-c2cnn3cc(N4CCC(N5CCN(C)CC5)CC4)cnc23)ccn1 [Compound 272]
35 | 14 | 267 | COc1cc(F)c2nccc(-c3cnn4cc(N5CCC(N6CCN(C)CC6)CC5)cnc34)c2c1 [Compound 273]
36 | 32 | 321 | COc1cc(-c2cnn3cc(N4CCC(N5CCN(C)CC5)CC4)cnc23)cc(OC)c1OC [Compound 274]
37 | 133 | 72 | Cc1cc(-c2cnn3cc(N4CCC(N5CCN(C)CC5)CC4)cnc23)c2cc(F)ccc2n1 [Compound 275]
38 | 164 | 64 | Cc1cc(-c2cnn3cc(N4CCC(N5CCN(C)CC5)CC4)cnc23)c2cc(F)cc(F)c2n1 [Compound 276]
39 | > 1000 | > 3000 | CN1CCN(C2CCN(c3cnc4c(-c5ccncc5)cnn4c3)CC2)CC1 [Compound 277]
40 | 31 | 897 | Cc1ccc2nccc(-c3cnn4cc(N5CCC(N6CCN(C)CC6)CC5)cnc34)c2c1F [Compound 278]
41 | 55 | > 1000 | CNc1ccc2nccc(-c3cnn4cc(N5CCC(N6CCN(C)CC6)CC5)cnc34)c2c1 [Compound 279]
42 | 26 | > 2000 | CN1CCN(C2CCN(c3cnc4c(-c5ccnc6ccc(N(C)C)cc56)cnn4c3)CC2)CC1 [Compound 280]
43 | > 3000 | > 3000 | CC(=O)Nc1ccc2nccc(-c3cnn4cc(N5CCC(N6CCN(C)CC6)CC5)cnc34)c2c1 [Compound 281]
44 | 10 | 96 | COc1cc2c(-c3cnn4cc(N5CC6(CN(C)C6)C5)cnc34)ccnc2cc1F [Compound 282]
45 | 12 | 63 | COc1cc2c(-c3cnn4cc(N5CCC6(CC5)CN(C)C6)cnc34)ccnc2cc1F [Compound 290]
46 | > 1000 | > 3000 | CN1CCN(C2CN(c3cnc4c(-c5cccc6c(C(N)=O)cccc56)cnn4c3)C2)CC1 [Compound 307]
47 | 159 | 595 | Cc1cc2c(-c3cnn4cc(N5CC(N6CCN(C)CC6)C5)cnc34)ccnc2cc1F [Compound 308]
48 | 28 | 335 | COc1cc(-c2cnn3cc(N4CC(N5CCN(C)CC5)C4)cnc23)cc(OC)c1OC [Compound 309]
49 | 21 | 38 | Cc1cc(-c2cnn3cc(N4CC(N5CCN(C)CC5)C4)cnc23)c2ccc(F)cc2n1 [Compound 310]
50 | 33 | 60 | Cc1cc(-c2cnn3cc(N4CC(N5CCN(C)CC5)C4)cnc23)c2cc(F)cc(F)c2n1 [Compound 311]
51 | 2 | > 3000 | CN1CCN(C2CN(c3cnc4c(-c5ccncc5)cnn4c3)C2)CC1 [Compound 313]
